The text below walks through data of PubChem BioAssay AID330 (DTP/NCI, 2004).

The assay concerns P388 leukemia ip, CD2F1 mice, survival T/C. As to the kind of experiment: NCI In Vivo Anticancer Drug Screen. Data for tumor model P388 Leukemia (intraperitoneal) in CD2F1 (CDF1) mice. The conditions noted are these: endpoint: median survival time, higher = longer survival. Summed up:
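Mice carrying the transplanted tumor received test compound or vehicle. Survival was recorded in each group, and the value is the treated-group measurement divided by that of the vehicle-treated control group.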

Where [1] appears, read: dose: 120.0 mg/kg/injection, schedule: Q01DX005 (ip), vehicle: Klucel (hydroxypropylcellulose) (HPC).
Where [2] appears, read: dose: 60.0 mg/kg/injection, schedule: Q01DX005 (ip), vehicle: Klucel (hydroxypropylcellulose) (HPC).
Where [3] appears, read: dose: 240.0 mg/kg/injection, schedule: Q01DX005 (ip), vehicle: Klucel (hydroxypropylcellulose) (HPC).
Where [4] appears, read: dose: 50.0 mg/kg/injection, schedule: Q01DX005 (ip), vehicle: saline with Tween-80.
[5] abbreviates: dose: 100.0 mg/kg/injection, schedule: Q01DX005 (ip), vehicle: saline with Tween-80.
[6] abbreviates: dose: 60.0 mg/kg/injection, schedule: Q01DX005 (ip), vehicle: saline with Tween-80.
[7] abbreviates: dose: 120.0 mg/kg/injection, schedule: Q01DX005 (ip), vehicle: saline with Tween-80.
The mark [8] stands for this setting: dose: 240.0 mg/kg/injection, schedule: Q01DX005 (ip), vehicle: saline with Tween-80.
[9] abbreviates: dose: 50.0 mg/kg/injection, schedule: Q01DX005 (ip), vehicle: saline.
[10] abbreviates: dose: 100.0 mg/kg/injection, schedule: Q01DX005 (ip), vehicle: saline.
Setting [11] is: dose: 200.0 mg/kg/injection, schedule: Q01DX005 (ip), vehicle: saline.
Where [12] appears, read: dose: 50.0 mg/kg/injection, schedule: Q01DX009 (ip), vehicle: Klucel (hydroxypropylcellulose) (HPC).
[13] abbreviates: dose: 100.0 mg/kg/injection, schedule: Q01DX009 (ip), vehicle: Klucel (hydroxypropylcellulose) (HPC).
[14] abbreviates: dose: 200.0 mg/kg/injection, schedule: Q01DX009 (ip), vehicle: Klucel (hydroxypropylcellulose) (HPC).
Where [15] appears, read: dose: 50.0 mg/kg/injection, schedule: Q01DX009 (ip), vehicle: saline.
The mark [16] stands for this setting: dose: 100.0 mg/kg/injection, schedule: Q01DX009 (ip), vehicle: saline.
Setting [17] is: dose: 200.0 mg/kg/injection, schedule: Q01DX009 (ip), vehicle: saline.
Where [18] appears, read: dose: 50.0 mg/kg/injection, schedule: Q01DX009 (ip), vehicle: saline with Tween-80.
Where [19] appears, read: dose: 100.0 mg/kg/injection, schedule: Q01DX009 (ip), vehicle: saline with Tween-80.
The mark [20] stands for this setting: dose: 200.0 mg/kg/injection, schedule: Q01DX009 (ip), vehicle: saline with Tween-80.

The structures appear in SMILES notation. Values joined by “and” are separate entries in the source; they are usually repeats but may differ in a detail not shown here. Identical values can stand only once. Toxic doses and inconclusive results are not listed. Square brackets hold non-standard residues; d marks the D form. Peptide text beside a SMILES is read from it. ξ: configuration not given here. ξAbu = CCC(N)C(=O)O

Consider `O=C(/C=C1\Nc2ccccc2N(C(=O)c2ccccc2)C1c1ccccc1)c1ccccc1` (configuration not stated), for which the T/C was 103 % of control (dose: 7.5 mg/kg/injection, schedule: Q01DX005 (ip), vehicle: Klucel (hydroxypropylcellulose) (HPC)); 88 % of control (dose: 15.0 mg/kg/injection, schedule: Q01DX005 (ip), vehicle: Klucel (hydroxypropylcellulose) (HPC)); 88 % of control and 91 % of control (dose: 30.0 mg/kg/injection, schedule: Q01DX005 (ip), vehicle: Klucel (hydroxypropylcellulose) (HPC)); 88 % of control under setting [1].

For `N#Cc1c(F)cccc1N1CCSCC1`, the T/C was 109 % of control under setting [2], 93 % of control under setting [1] and 89 % of control under setting [3].

As for `COc1cc2c(cc1C(C)c1ccccc1)OCO2` (configuration not stated), the T/C under setting [4] is 96 % of control; the T/C under setting [5] is 96 % of control; the T/C (dose: 200.0 mg/kg/injection, schedule: Q01DX005 (ip), vehicle: saline with Tween-80) is 111 % of control.

As to `C[C@]12CCC(=O)C[C@@H]1CC[C@@H]1[C@@H]2CC[C@]2(C)[C@@H]3OCCC[C@H]3C[C@@H]12`, the T/C under setting [6] was 91 % of control, the T/C under setting [7] is 89 % of control and the T/C under setting [8] was 90 % of control.

As for `O=C(c1cc(-c2ccccc2)nc2ccccc12)n1c(=O)oc(=O)c2cc([N+](=O)[O-])ccc21`, the T/C runs as follows: under setting [9], 97 % of control; under setting [10], 101 % of control; under setting [11], 99 % of control.

Regarding `[CH3][Ge]1([CH3])[CH2]C(c2ccccc2)C(c2ccccc2)[CH2]1` (configuration not stated), the T/C reads like this: under setting [2], 100 % of control; under setting [1], 97 % of control; under setting [3], 98 % of control.

Take `CC(C)(O)c1cccc2c(C(C)(C)O)cccc12`: the T/C was 88 % of control under setting [12]; 97 % of control under setting [13]; 93 % of control and 94 % of control under setting [14]; 91 % of control (dose: 400.0 mg/kg/injection, schedule: Q01DX009 (ip), vehicle: Klucel (hydroxypropylcellulose) (HPC)).

`Cc1cc(=O)[nH]c(=O)n1C1OC(CO)C(O)C1O` (configuration not stated): the T/C is, setting by setting: under setting [9], 109 % of control; under setting [10], 103 % of control; under setting [11], 112 % of control.

On to `CCC(N)C(=O)NCC(=O)NCC(=O)O` (stereo not drawn) (H-[ξAbu]-Gly-Gly-OH), for which the T/C under setting [9] is 103 % of control, the T/C under setting [10] is 103 % of control and the T/C under setting [11] was 103 % of control.

Regarding `CN(C)Cc1cocc(CN(C)C)c1=O`, the T/C is 100 % of control under setting [15], 98 % of control under setting [16] and 103 % of control under setting [17].

As for `O=C(O)c1ccccc1SCCO`, the T/C (dose: 25.0 mg/kg/injection, schedule: Q01DX009 (ip), vehicle: Klucel (hydroxypropylcellulose) (HPC)) was 89 % of control; the T/C under setting [12] was 91 % of control; the T/C under setting [14] was 90 % of control.

As for `Cc1ccc(Nc2nnc(Nc3ccc(C)cn3)c3ccccc23)nc1`, the T/C under setting [4] is 90 % of control and the T/C under setting [5] was 89 % of control.

For the compound `O=C(CN1C(=O)c2ccccc2C1=O)OCCNCCCl`, the T/C was 99 % of control under setting [15], 106 % of control under setting [16] and 107 % of control under setting [17].

Take `Cc1ccc(S(=O)(=O)N(CCCc2c(-c3ccccc3)nc(N)[nH]c2=O)c2ccccc2)cc1`: the T/C (dose: 3.75 mg/kg/injection, schedule: Q01DX005 (ip), vehicle: saline with Tween-80) is 102 % of control; the T/C (dose: 7.5 mg/kg/injection, schedule: Q01DX005 (ip), vehicle: saline with Tween-80) was 94 % of control; the T/C (dose: 15.0 mg/kg/injection, schedule: Q01DX005 (ip), vehicle: saline with Tween-80) was 107 % of control and 87 % of control; the T/C under setting [6] was 98 % of control and 90 % of control.

Turning to `O=C(O)c1ccc(C(=O)c2ccc([N+](=O)[O-])cc2)cc1`, the T/C runs as follows: under setting [6], 103 % of control; under setting [7], 104 % of control; under setting [8], 103 % of control.

Turning to `CC(=O)Nc1nc(N)nc(NC(C)=O)c1N=O`, the T/C is, setting by setting: under setting [18], 110 % of control; under setting [19], 119 % of control; under setting [20], 117 % of control.

On to `O=C1CCSC(=S)N1C(=O)c1ccccc1`, for which the T/C was 104 % of control under setting [12], 104 % of control under setting [13] and 109 % of control under setting [14].

As for `O=C(CCCCCS)NCCCCCCCCCCNC(=O)CCCCCS`, the T/C by setting is: (dose: 100.0 mg/kg/injection, schedule: Q04DX002 (ip), vehicle: Klucel (hydroxypropylcellulose) (HPC)) 97 % of control; (dose: 200.0 mg/kg/injection, schedule: Q04DX002 (ip), vehicle: Klucel (hydroxypropylcellulose) (HPC)) 92 % of control; (dose: 400.0 mg/kg/injection, schedule: Q04DX002 (ip), vehicle: Klucel (hydroxypropylcellulose) (HPC)) 90 % of control.

Consider `O=C(CCCC(=O)Nc1ccc2[nH]c3ccccc3c(=O)c2c1)Nc1ccc2[nH]c3ccccc3c(=O)c2c1`, for which the T/C is 92 % of control under setting [2] and 94 % of control under setting [1].

`Cc1cc(C)n(-c2ccncc2[N+](=O)[O-])n1`: the T/C under setting [15] was 101 % of control, the T/C under setting [16] was 97 % of control and the T/C under setting [17] is 105 % of control.

With `NC(=S)N/N=C/c1ccc(OC(F)(F)F)cn1`, the T/C was 101 % of control (dose: 1.56 mg/kg/injection, schedule: Q01DX009 (ip), vehicle: saline with Tween-80); 101 % of control and 107 % of control (dose: 3.13 mg/kg/injection, schedule: Q01DX009 (ip), vehicle: saline with Tween-80); 100 % of control and 95 % of control (dose: 6.25 mg/kg/injection, schedule: Q01DX009 (ip), vehicle: saline with Tween-80); 99 % of control and 101 % of control (dose: 12.5 mg/kg/injection, schedule: Q01DX009 (ip), vehicle: saline with Tween-80); 101 % of control (dose: 25.0 mg/kg/injection, schedule: Q01DX009 (ip), vehicle: saline with Tween-80); 114 % of control under setting [18].

For the compound `COc1cccc2c1C(=O)c1c(O)c3c(c(O)c1C2=O)C[C@@](O)(/C(C)=N/NC(=O)c1ccc(S(N)(=O)=O)cc1)C[C@@H]3OC1CC(N)C(O)C(C)O1` (some centres not stated), the T/C by setting is: (dose: 0.78 mg/kg/injection, schedule: Q01DX009 (ip), vehicle: water) 150 % of control; (dose: 1.56 mg/kg/injection, schedule: Q01DX009 (ip), vehicle: water) 161 % of control; (dose: 3.13 mg/kg/injection, schedule: Q01DX009 (ip), vehicle: water) 154 % of control and 182 % of control; (dose: 4.7 mg/kg/injection, schedule: Q04DX003 (ip), vehicle: water) 105 % of control and 106 % of control; (dose: 6.25 mg/kg/injection, schedule: Q01DX009 (ip), vehicle: water) 178 % of control and 201 % of control; (dose: 12.5 mg/kg/injection, schedule: Q01DX001 (ip), vehicle: water) 161 % of control. Also, the T/C by setting is: (dose: 12.5 mg/kg/injection, schedule: Q01DX009 (ip), vehicle: water) 196 % of control and 214 % of control; (dose: 18.8 mg/kg/injection, schedule: Q04DX003 (ip), vehicle: water) 123 % of control; (dose: 25.0 mg/kg/injection, schedule: Q01DX001 (ip), vehicle: water) 188 % of control; (dose: 37.5 mg/kg/injection, schedule: Q04DX003 (ip), vehicle: water) 203 % of control; (dose: 75.0 mg/kg/injection, schedule: Q04DX003 (ip), vehicle: water) 122 % of control; (dose: 150.0 mg/kg/injection, schedule: Q04DX003 (ip), vehicle: water) 100 % of control and 93 % of control.

In the case of `CCCCc1c(OCC)cc2n(CC)c3ccccc3n2c1=O`, the T/C by setting is: under setting [6], 107 % of control; under setting [7], 94 % of control; under setting [8], 94 % of control.

As to `CCOC1CC(C)(C)c2c(-c3ccccc3)nn(-c3ccccc3)c2O1` (configuration not stated), the T/C under setting [18] is 94 % of control, the T/C under setting [19] was 100 % of control and the T/C under setting [20] is 98 % of control.

Regarding `CN=C(N)NN=C(c1ccc(F)cc1)c1ccc(F)cc1`, the T/C is 100 % of control and 106 % of control (dose: 12.5 mg/kg/injection, schedule: Q04DX002 (ip), vehicle: saline with Tween-80); 87 % of control (dose: 50.0 mg/kg/injection, schedule: Q04DX002 (ip), vehicle: saline with Tween-80).
